{"source": "patent US20240050409A1", "about": "“Methods and Compositions for Treating Psychotic Disorders” (SOUND PHARMACEUTICALS INCORPORATED, priority 2014, published 2024)", "tested_on": "perineuronal nets (PNN) in the PFC of NVHL rats", "test": "WFA staining of perineuronal nets (PNN) around PVI in PFC of NVHL rats", "type": "in vivo, Sprague-Dawley rats", "settings": "adult NVHL rats, juvenile treatment", "text": "To determine the types of interneurons expressing oxidative stress in NVHL rats, 8-oxo-dG with PV, calbindin (CB) and calretinin (CR) was co-labeled. […] About 50% of PVI were co-labeled with 8-oxo-dG, indicating oxidative stress is pervasive in this cell population. A marker of PVI maturation is Wisteria Floribunda agglutinin (WFA), a lectin that recognizes the perineuronal nets (PNN) enwrapping mature cortical PVI. […] PVI may be highly exposed to increased oxidative stress because they make up the majority of fast-spiking interneurons and their high energy metabolism may generate more reactive oxygen species than non-fast spiking neurons.\nAntioxidant pretreatment regimen: NAC (BioAdvantexPharma, Mississauga, Ontario, Canada) was administered in the drinking water at 900 mg/l. NAC treatment started at P5 or at P35, and previous work in mice has shown that NAC consumed by the dam is transmitted to the pups through her milk (das Neves Duarte et al., 2012). NAC treatment ended at P50. Fresh solutions were prepared every 2-3 days. Ebselen (Sound Pharmaceuticals Inc., Seattle, WA) was administered i.p. 5 days a week starting at P35 until the day of PPI testing (P60). Stock ebselen solution (20 mg/ml DMSO, frozen aliquots) was diluted 1:5 in sterile water and administered at a dose of 10 mg/kg. Control animals received an equivalent concentration of DMSO diluted 1:5 in water. […]", "note": "Entries after “also recorded” stand apart in the source; their conditions may differ.", "data": [{"smiles": "CC(=O)N[C@@H](CS)C(=O)O", "note": "[NAC, N-acetyl cysteine]", "values": [{"measurement": "effect on reduced WFA staining / WFA-positive PVI (PNN)", "result": "restored; also recorded: prevented"}]}]}
